{
  "source": "patent US20230241188A1",
  "about": "(priority 2020, published 2023)",
  "key": {"[1]": {"molecular_target": "SARS-CoV-2 (2019-nCoV) Envelope Recombinant Protein (Severe acute respiratory syndrome coronavirus 2, UniProt P0DTC4)", "sequence (P0DTC4 whole entry)": "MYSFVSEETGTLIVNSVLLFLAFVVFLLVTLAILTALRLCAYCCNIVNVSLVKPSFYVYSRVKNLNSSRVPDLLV", "format": "biochemical"}, "[2]": {"molecular_target": "Recombinant SARS-CoV-2 spike protein (Severe acute respiratory syndrome coronavirus 2, UniProt P0DTC2)", "format": "biochemical"}, "envelope protein": {"molecular_target": "envelope protein (Severe acute respiratory syndrome coronavirus 2, UniProt P0DTC4)", "sequence (P0DTC4 whole entry)": "as above", "format": "biochemical, SARS-CoV-2"}, "[3]": {"system": "SARS-COV-2 R209112 strain", "assay": "SARS-CoV-2 inactivation test, Vero cells, optical microscope observation", "format": "cell-based"}, "[4]": {"system": "SARS-COV-2 R209112 strain", "format": "cell-based"}, "[5]": {"system": "wild-type (WT) SARS-CoV-2 strain (EPI_ISL_578176)", "format": "cell-based"}, "[6]": {"system": "SARS-COV-2 R209112 strain"}},
  "note": "Read-outs that look alike come from different tables or passages of the source.",
  "data": [
    {"molecule": "CC(=O)N[C@@H](CS)C(=O)O", "note": "[Acetylcysteine, acetylcysteine]", "values": [
      {"measurement": "envelope protein band on SDS-PAGE gel", "setting": "[1]", "result": "did not disintegrate the protein"},
      {"measurement": "comparative reduction of disulphide bonds, DTT alone vs DTT with Acetylcysteine (slope ratio)", "setting": "[2]", "result": 42, "unit": "%"},
      {"measurement": "disulphide linkages reduced by Acetylcysteine", "setting": "[2]", "result": 58, "unit": "%"},
      {"measurement": "differential assay between Acetylcysteine and DTT (slope ratio)", "setting": "envelope protein", "result": 60, "unit": "%"},
      {"measurement": "disulphide bonds reduced by Acetylcysteine before the addition of DTT", "setting": "envelope protein", "result": 40, "unit": "%"},
      {"measurement": "optical microscope observation of SARS-CoV-2 infection, V1", "setting": "[3]", "result": "+"},
      {"measurement": "optical microscope observation of SARS-CoV-2 infection, V2", "setting": "[3]", "result": "+"},
      {"measurement": "optical microscope observation of SARS-CoV-2 infection, V3", "setting": "[3]", "result": "- and +"},
      {"measurement": "optical microscope observation of SARS-CoV-2 infection, V4", "setting": "[3]", "result": "-"},
      {"measurement": "optical microscope observation of SARS-CoV-2 infection, V5", "setting": "[3]", "result": "-"},
      {"measurement": "therapeutic effect (cytopathic effect at 5 days), in words", "setting": "[3]", "result": "did not show any therapeutic effect"},
      {"measurement": "effect (cytopathic effect at 7 days), in words", "setting": "[4]", "result": "did not show any effect"},
      {"measurement": "optical microscope observation of SARS-CoV-2 infection, V1", "setting": "[4]", "result": "+"},
      {"measurement": "optical microscope observation of SARS-CoV-2 infection, V2", "setting": "[4]", "result": "+"},
      {"measurement": "optical microscope observation of SARS-CoV-2 infection, V3", "setting": "[4]", "result": "-"},
      {"measurement": "optical microscope observation of SARS-CoV-2 infection, V4", "setting": "[4]", "result": "-"},
      {"measurement": "optical microscope observation of SARS-CoV-2 infection, V5", "setting": "[4]", "result": "-"},
      {"measurement": "viral inhibition (CPE, optical and Neutral Red cell staining)", "setting": "[5]", "result": "no viral inhibition"},
      {"measurement": "viral inactivation test (RNA extraction), Δlog, V1", "setting": "[6]", "result": 0.088, "unit": "log"},
      {"measurement": "viral inactivation test (RNA extraction), Δlog, V2", "setting": "[6]", "result": 0.224, "unit": "log"},
      {"measurement": "TOXICITY (optical microscope observation)", "setting": "Vero cells", "result": "Nil"},
      {"measurement": "TOXICITY (optical microscope observation)", "setting": "BGM cells", "result": "Nil"}
    ]},
    {"molecule": "Bromelain", "values": [
      {"measurement": "TOXICITY (optical microscope observation)", "setting": "Vero cells", "result": "Nil"},
      {"measurement": "TOXICITY (optical microscope observation)", "setting": "BGM cells", "result": "Nil"}
    ]}
  ]
}
